The numbers were not newly measured in patent US20080171795A1, “Novel Inter and Intra Multilamellar Vesicular Composition” (LIFE-CARE INNOVATIONS PVT. LTD., priority 2005, published 2008), which cites them from elsewhere.

Where two headings read alike, the source gives them in different places.

Series [1] has as its system psoriasis. To be noted: compared with dithranol.
For series [2] the following is noted: topical, skin with impaired stratum corneum barrier.

Turning to `CCCC(=O)C1c2cccc(O)c2C(=O)c2c(O)cccc21` [butantrone, 10-butyryldithranol], in series [1], the Efficacy result was “compromised”; the Irritancy and staining result was “reduced irritancy and staining”.
In the case of `O=C1c2c(O)cccc2Cc2cccc(O)c21` [Dithranol, 1,8-dihydroxyanthrone], the “Time to penetrate into the skin” value in series [2] is 30 min. Moreover, the Solubility result is given as “alcohol, ether, glacial acetic acid, sparingly” (in acetone); “slightly soluble” (in alcohol, ether, glacial acetic acid); “chloroform. dissolves in dilute solution of alkali” (in dilute solution of alkali hydroxides); “soluble in acetone, soluble in methylene chloride,” (in methylene chloride, chloroform); “Practically insoluble” (in water); “insoluble in water” (in water, listed as dithranol).
As for `CC(=O)Oc1cccc2cc3cccc(OC(C)=O)c3c(OC(C)=O)c12` [triacetyldithranol], in series [1], the Efficacy entry is on record as “compromised”; the Irritancy and staining result was “reduced irritancy and staining”.
